According to patent EP1310250A1, “Use of the compound 2-methoxyphenyl-1-methyl-5P-methylbenzoyl-pyrrol-2-acetamido acetate for the production of an antiinflammatory drug with prevention of gastric hypersecretion and renal impairment” (MEDOSAN Ricerca S.r.l., priority 1997, dated 1999):
Several values for one entry are separate records, joined by “and”; a condition that tells them apart may be missing. Equal entries are not always repeated. Marks after values point to notes of the source that are not given here.

Columns and labels:
[1] = system: gastric mucosa; test: Histological evaluation of the gastric mucosa by an independent laboratory; conditions: single animals; oral gavage: amtolmetin guacyl 50 mg/kg, diclofenac 7.5 mg/kg, tolmetin 66.6 mg/kg
Method: In order to obtain a histological evaluation of the results obtained in our laboratories, an independent laboratory was provided with identical samples of the material evaluated by us, under totally blind conditions.
Controls received the vehicle only, also by oral gavage. 4 h after the final administration the animals were killed by ether overdose and the stomachs removed, rinsed in saline and immersed in formalin 4%.

[2] = system: rat gastric mucosa; conditions: male, Wistar, in vivo, po, 4 days
Method: The animals entered in the trial, randomized and divided into groups of 6 rats each, were fasted for 16 h prior to treatment, with access to water ad libitum. They were re-fed 1 h after drug administration. The compound 2-methoxyphenyl-1-methyl-5p-methylbenzoyl-pyrrol-2-acetamido acetate and the other reference NSAIDs, suspended in 1% carboxymethylcellulose (CMC) solution, were orally administered by gastric gavage in a volume of 6ml/kg for four consecutive days. Controls received the vehicle in the same way as the treated animals. 4 h after the last administration the animals were killed by ether overdose; the stomachs were removed, rinsed with 10 ml of saline and immersed in 1% formalin. They were later opened along the greater curvature and the mucosa examined for lesions.
The seriousness of the lesion was quantified according to a scale graduated from 1 to 3 according to the size of the lesions: 1= ulcer < 1mm; 2= ulcer 1-2mm; 3= ulcer > 2mm. The total sum was divided by 10 to obtain the "erosion index". The gastric lesions were evaluated by two independent investigators under blind conditions according to Main & Whittle method (BJ Pharmac 1975:53; p. 217-224).
Since the average daily dose in man (for the anti-inflammatory activity) is 600 mg, the comparative efficacious dose in the rat is in the ratio of 12:1. More precisely, comparative evaluation with the other NSAID compounds was calculated as follows: 600 mg/die: 50 mg/kg = daily dose of reference NSAID in man: X [formula] where X represents the daily dose of the reference NSAID in rat. This criterion keeps into account the "real" activity ratio in man. In this work the "ratio to rat dosage" has also been included which keeps into account ratios homogeneous to the same animal species. To evaluate the "ratio to rat dosage" the ID50 has been determined using the carrageenin-induced oedema as inflammatory test.
In order to exacerbate possible side effects on the stomach the dosage of amtolmetin guacyl was quadruplicated.

[3] = system: isolated, perfused, immature rat stomach; test: Antisecretive activity in vitro, isolated perfused immature rat stomach; conditions: agonist Histamine 10^-4 M, antagonist 10^-4 M
Text: Male Wistar rats, 250±10 g b.w. (Charles River, Calco, Como, Italy), quarantined for five days prior to the beginning of the trial and divided into groups of 3 animals per cage, were used for determination of gastric lesions and of ID50 determination. Immature male Wistar rats, 30-45 g b.w. (Harlan Nossan, Milano) were used for the determination of the antisecretory effect on isolated rat stomach. The guinea-pigs used were the Dunkin Hartley guinea-pigs (Harlan Nossan, Milano, Italy).
At the beginning, the isolated, perfused, immature rat stomach, treated externally with the study product, was used. We preferred to use the isolated stomach in toto rather than strips (B.R. No. 18, 19 and 20) in order not to exclude a section of the stomach (the antrum), unimportant for acid secretion but very important for the secretion of bicarbonates and bioactive peptides (b.r. No. 21, 22). The results were encouraging, since amtolmetin guacyl inhibited acid production stimulated by the three classic agonists (histamine, acetilcholine and gastrin) both using varying doses of agonist or varying doses of amtolmetin guacyl (Table 5).
The results are expressed as mean±S.E.

[4] = system: diuresis; test: Diuresis in normally hydrated rats; type: in vivo; conditions: normally hydrated rats treated orally for 8 consecutive days (figure 13)
Method: In the course of various studies conducted on animals to show the lack of renal impairment, a test was carried out to compare the diuresis in normally hydrated rats treated orally for 8 consecutive days with amtolmeting guacyl and diclofenac, which is also a NSAID.

[5] = system: carrageenin-induced paw oedema; test: Determination of ID50, carrageenin-induced paw oedema; type: in vivo, rat; conditions: five times the oral ID50 for oedema inhibition, 2 h after carrageenin
Method: ID50, relative to the products under examination (considered in table 1), has been evaluated using the anti-inflammatory response to carrageenin-induced paw oedema (according to Wong et al, J Pharmacol Exp, 1973:1855; pages 127-138). The products, suspended in 1% CMC, were administered orally in a total volume of 5 ml/rat. 1 h later, 0.1 ml of 1% carrageenin sterile solution was injected into the hind subplantar aponeurosis. Volume of the paw was measured immediately prior to injection of the phlogogen and 2 h thereafter, by means of a plethysmograph. The percentage of inhibition of oedema was calculated as follows: 1 - ΔV treated/ΔV control x 100 [formula] where ΔV = final V - initial V.

[6] = system: post-traumatic arthralgia; test: Clinical trials: analgesic properties in post-traumatic arthralgia; type: in vivo, man; conditions: Amtolmetin guacyl 600mgx2-daily, Diclofenac 50mgx2-daily, 15 patients each
Text: The same can be said in the treatment of post-traumatic arthralgia.

[7] = system: Adjuvant arthritis; test: Adjuvant arthritis: joint inflammation and patellar bone erosion; type: in vivo, rats; conditions: patellar bone mass; MED 15 25, 50, 100mg/kg, piroxicam 3mg/kg
Method: The drugs were administered daily by oral gavage for 4 days (day 0-3); piroxicam and MED 15 were dissolved in 5% Gum arabic + 0.01% Tween 80, and administered in a volume of 0.5ml. Piroxicam was administered as 3mg/kg and MED 15 was administered as 25, 50 and 100mg/kg doses. Table 8 bis illustrating dosage regimes. L=left stifle joint, R=Right stifle joint.
Under halothane anaesthesia, rats received 200µg of heat-killed finely ground Mycobactyerium tubercolosis in 25µl (80mg/10ml sterile saline) injected intra-articulary into the left stifle joint. The contralateral joint received 25µl 0.9% sterile saline. Control animals received 25µl of 0.9% sterile saline in both knees. SGE 50µl microsyringes with a volume lock calibrated at 25µl were used with 30G stainless steel needles. Solutions were prepared sterile, and aseptic technique was used throughout, with sterilisation of syringes between groups.
The rats were killed by carbon dioxide suffocation. The body weight was noted and the skin overlying the stifle joints was divided and the joint diameters assessed in mm using Mitutoyo vernier callipers (530-312, 0.02mm).
The patellae were dissected, weighed (Sartorius, 0.01mg) and then immersed in 1ml digestion buffer (see below) to remove soft tissue.
Digestive buffer was prepared fresh to the following formula; disodium hydrogen orthophosphate 20mM, EDTA 1mM and diothiothreitol at 2mM. […]

In the case of `Cc1ccc(C(=O)c2ccc(CC(=O)O)n2C)cc1` [Tolmetin, tolmetin], the Macroscopic findings [1] is reported as 3 and 0 (2×), the Microscopic findings [1] is reported as 2+ and 0+ and 1+ and the Gastrolesive index [2] is reported as 79.7.
`CN/C(=N/CCSCc1nc[nH]c1C)NC#N` [Cimetidine, cimetidine, reference compound] was tested, and the “% inhib.” value [3] was 78.6% and the “Δacid” value ([3]; mean±S.E.) was 14.3 ± 7.2 nmol/min.
With `O=C(O)Cc1ccccc1Nc1c(Cl)cccc1Cl` [Diclofenac sodium, diclofenac sodium] the diuresis [4] was “clear decrease”, the “Ratio to rat dosage (mg/kg) (ID50 mg/kg x5)” value [5] was 15.8 mg/kg and the Macroscopic findings [1] was 2 and 4 and 7. For the same compound, the Microscopic findings [1] was 2* and 3* and 9*, the “further gastric findings (table footnotes)” value [2] was “Each value is the mean of 6 rats. ^a)Diffuse haemorrhagic gastritis was also present” and the “Duration” value [6] was 180 min. The “Latency” value [6] was 20 min and the “Max. time effect” value [6] was 60 min.
For `CN1C(C(=O)Nc2ccccn2)=C(O)c2ccccc2S1(=O)=O` [Piroxicam, piroxicam], the “protection against bone loss” value [7] was “greatest protection against bone loss” and the “Ratio to rat dosage (mg/kg) (ID50 mg/kg x5)” value [5] was 13.8 mg/kg.
